Experiments:
[1] = tested on: acetylated α-tubulin in A549 lung adenocarcinoma cells; experiment: Acetylated α-tubulin in-cell western (ICW) assay; type: cell-based; settings: Homo sapiens, 16 h exposure, relative to 40 μM scriptaid positive control, read-out: EC50 Ac-α-tubulin, A549 cells
Experimental: Acetylated α-Tubulin and Histone H3 in-Cell Western (ICW) Assays
A549 cells were maintained in DMEM (Life Technologies)+10% FBS+2 mM glutamine & penicillin (10 μg/mL) and streptomycin ([…]. 10,000 A549 cells per well were plated into 96 well tissue culture plates (Corning) and incubated at 37° C. overnight in a humidified atmosphere containing 5% CO2 prior to addition of compounds. Compounds (dissolved in 100% DMSO) were diluted into cell culture media at 2× final assay concentration. 2× compound or DMSO (negative control) were added to cells (final DMSO concentration 0.4%). Untreated control wells received media. For acetylated α-tubulin assays, 40 μM scriptaid was used as a positive control. For acetylated histone H3 assays, 40 μM Trichostatin A (TSA) was used as a positive control. Cells were exposed to compound at 37° C. in a humidified atmosphere containing 5% CO2 for 16 h.
Measurement of the impact of compounds on levels of acetylated α-tubulin and histone H3 was performed using specific antibodies and near-infrared immunofluorescent dyes. Briefly, media was removed from wells of assay plates. Cells were washed once with PBS and fixed in 3.7% formaldehyde PBS solution at room temperature for 20 min. Cells were then permeabilised by washing 5 times in 0.1% triton-X-100 PBS at room temperature with gentle agitation for 5 min per wash. Non-specific antibody staining was blocked by the addition of Odyssey blocking buffer (Li-Cor) for 1.5 h at room temperature with gentle agitation. Cells were then incubated with primary antibody (mouse monoclonal anti-acetylated α-tubulin (clone 6-11B-1), Sigma or rabbit polyclonal anti-acetylated histone H3, Millipore) diluted in Odyssey blocking buffer at 4° C. with gentle shaking overnight (no antibody control and secondary antibody only wells were incubated with Odyssey blocking buffer only). Cells were washed five times with 0.1% tween PBS and labelled with secondary antibody (IR dye 800CW-conjugated goat anti mouse IgG or -goat anti rabbit IgG, Li-Cor) and cell stains Sapphire700 (Li-Cor) and Draq5 (Biostatus) diluted in Odyssey blocking buffer at room temperature in the dark with gentle shaking for 1 h (no antibody control wells were incubated with Odyssey blocking buffer only and secondary antibody only with diluted secondary antibody but no cell stains). Cells were washed with 0.1% Tween PBS five times and scanned using a Li-Cor Odyssey SA plate reader in 700 and 800 nm channels. Acetylated α-tubulin or histone H3 signal was normalised to cell number using the cell stain signal. Percentage increase in acetylated α-tubulin or histone H3 after compound treatment over the mean of DMSO treated controls, relative to scriptaid and TSA positive controls, respectively was calculated. EC50 values were calculated using GraphPad Prism software and nonlinear regression with 0% bottom and 100% top constraints.

Human HDAC10 = target: T1, Human HDAC10 (Homo sapiens, UniProt Q969S8); experiment: HDAC10 biochemical assay, AMC-labeled peptide substrate; settings: read-out: HDAC Isoform IC50 (nM) 10
T1 construct: Human HDAC10 (a.a. 1-481); GST (N); His (C); host or cells: baculovirus expression system
T1 sequence (Q969S8 1-481): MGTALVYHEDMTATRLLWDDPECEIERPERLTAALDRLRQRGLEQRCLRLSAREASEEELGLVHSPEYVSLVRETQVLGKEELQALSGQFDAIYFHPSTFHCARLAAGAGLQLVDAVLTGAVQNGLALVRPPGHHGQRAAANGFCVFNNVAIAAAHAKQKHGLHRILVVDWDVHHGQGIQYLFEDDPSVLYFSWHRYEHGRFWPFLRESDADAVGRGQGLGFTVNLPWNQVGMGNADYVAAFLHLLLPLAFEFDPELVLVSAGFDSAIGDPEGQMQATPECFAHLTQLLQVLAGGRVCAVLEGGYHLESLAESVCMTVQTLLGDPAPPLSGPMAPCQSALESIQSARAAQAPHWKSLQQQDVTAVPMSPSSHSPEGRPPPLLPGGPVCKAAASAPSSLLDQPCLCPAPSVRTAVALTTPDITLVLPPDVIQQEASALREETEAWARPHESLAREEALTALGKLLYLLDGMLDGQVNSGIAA
Procedure, shortened: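 Baculovirus-expressed GST/His-tagged human HDAC10 (aa 1-481), 12 ng/ul, incubated with 50 μM RHKK(Ac)AMC in Tris pH 8.0 buffer with BSA and 1% DMSO, 2 h at 30 °C. Developer then releases AMC, read at 360/460 nm.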

Human HDAC11 = target: T2, Human HDAC11 (Homo sapiens, UniProt Q96DB2); experiment: HDAC11 biochemical assay, class IIa-specific substrate; settings: read-out: HDAC Isoform IC50 (nM) 11
T2 construct: Human HDAC11 (full length); His (N); host or cells: baculovirus expression system
T2 sequence (Q96DB2 1-347): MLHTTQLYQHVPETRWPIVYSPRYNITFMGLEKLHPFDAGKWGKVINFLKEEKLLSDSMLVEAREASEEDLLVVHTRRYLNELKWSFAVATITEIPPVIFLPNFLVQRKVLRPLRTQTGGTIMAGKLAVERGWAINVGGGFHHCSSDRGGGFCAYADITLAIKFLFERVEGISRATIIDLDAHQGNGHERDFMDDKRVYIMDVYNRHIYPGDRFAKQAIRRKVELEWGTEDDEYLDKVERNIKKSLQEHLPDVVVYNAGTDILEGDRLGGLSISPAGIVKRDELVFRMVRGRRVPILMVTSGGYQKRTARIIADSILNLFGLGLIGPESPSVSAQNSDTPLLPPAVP
Procedure, shortened: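 Full-length N-His human HDAC11 from baculovirus, 5 ng/μl, incubated with 50 μM Boc-Lys(trifluoroacetyl)-AMC for 30 min at 30 °C. Buffer: 50 mM Tris-HCl pH 8.0, 137 mM NaCl, 2.7 mM KCl, 1 mM MgCl2, 1 mg/mL BSA, 1% DMSO. Developer releases AMC; fluorescence read at 360/460 nm.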

| EC50 [1] [µM] | IC50 (Human HDAC10) [nM] | IC50 (Human HDAC11) [nM] | Compound |
| --- | --- | --- | --- |
| ≤ 1 | > 10000 | > 10000 | O=C(c1ccc(N(Cc2ccc(-c3noc(C(F)(F)F)n3)s2)c2cnccn2)nn1)N1CC(O)(C(F)(F)F)C1 [Example FK, 1-{6-[(Pyrazin-2-yl)({5-[5-(trifluoromethyl)-1,2,4-oxadiazol-3-yl]thiophen-2-yl}methyl)amino]pyridazine-3-carbonyl}-3-(trifluoromethyl)azetidin-3-ol] |
| ≤ 1 | > 10000 | > 10000 | O=C(c1cnnc(N(Cc2ccc(-c3noc(C(F)(F)F)n3)s2)c2cnccn2)c1)N1CCC12COC2 [Example GF, 5-{6-Oxa-1-azaspiro[3.3]heptane-1-carbonyl}-N-(pyrazin-2-yl)-N-({5-[5-(trifluoromethyl)-1,2,4-oxadiazol-3-yl]thiophen-2-yl}methyl)pyridazin-3-amine] |
| ≤ 1 | > 10000 | > 10000 | O=C(c1ccc(N(Cc2ccc(-c3noc(C(F)(F)F)n3)s2)c2cnccn2)nn1)N1CCC2(COC2)C1 [Example FJ, 6-{2-Oxa-6-azaspiro[3.4]octane-6-carbonyl}-N-(pyrazin-2-yl)-N-({5-[5-(trifluoromethyl)-1,2,4-oxadiazol-3-yl]thiophen-2-yl}methyl)pyridazin-3-amine] |
| 1 to 10 | > 10000 | > 10000 | FC(F)(F)c1cnnc(N(Cc2ccc(-c3noc(C(F)(F)F)n3)s2)c2cnccn2)c1 [Example EF, N-(Pyrazin-2-yl)-5-(trifluoromethyl)-N-({5-[5-(trifluoromethyl)-1,2,4-oxadiazol-3-yl]thiophen-2-yl}methyl)pyridazin-3-amine] |
| ≤ 1 | > 10000 | > 10000 | CN(C)C1CN(C(=O)c2cnnc(N(Cc3ccc(-c4noc(C(F)(F)F)n4)s3)c3cnccn3)c2)C1 [Example FX, 5-[3-(Dimethylamino)azetidine-1-carbonyl]-N-(pyrazin-2-yl)-N-({5-[5-(trifluoromethyl)-1,2,4-oxadiazol-3-yl]thiophen-2-yl}methyl)pyridazin-3-amine] |
| ≤ 1 | > 10000 | > 10000 | O=C(c1cnnc(N(Cc2ccc(-c3noc(C(F)(F)F)n3)s2)c2cnccn2)c1)N1CC(C(F)(F)F)C1 [Example GJ, N-(Pyrazin-2-yl)-N-({5-[5-(trifluoromethyl)-1,2,4-oxadiazol-3-yl]thiophen-2-yl}methyl)-5-[3-(trifluoromethyl)azetidine-1-carbonyl]pyridazin-3-amine] |
| ≤ 1 | > 10000 | > 10000 | FC(F)(F)c1nc(-c2ccc(CN(c3cnccn3)c3cnccn3)s2)no1 [Example BA, N-(Pyrazin-2-yl)-N-({5-[5-(trifluoromethyl)-1,2,4-oxadiazol-3-yl]thiophen-2-yl}methyl)pyrazin-2-amine] |
| ≤ 1 | > 10000 | > 10000 | O=C(c1cnnc(N(Cc2ccc(-c3noc(C(F)(F)F)n3)s2)c2cnccn2)c1)N1CC(C(F)F)C1 [Example GK, 5-[3-(Difluoromethyl)azetidine-1-carbonyl]-N-(pyrazin-2-yl)-N-({5-[5-(trifluoromethyl)-1,2,4-oxadiazol-3-yl]thiophen-2-yl}methyl)pyridazin-3-amine] |
| ≤ 1 | > 10000 | > 10000 | FC(F)(F)c1nc(-c2ccc(CN(c3cnccn3)c3cc(CN4CCOCC4)ccn3)s2)no1 [Example GI, N-{4-[(Morpholin-4-yl)methyl]pyridin-2-yl}-N-({5-[5-(trifluoromethyl)-1,2,4-oxadiazol-3-yl]thiophen-2-yl}methyl)pyrazin-2-amine] |
| ≤ 1 | > 10000 | > 10000 | O=C(c1ccc(N(Cc2ccc(-c3noc(C(F)(F)F)n3)s2)c2cnccn2)nn1)N1CCCC1 [Example FI, N-(Pyrazin-2-yl)-6-(pyrrolidine-1-carbonyl)-N-({5-[5-(trifluoromethyl)-1,2,4-oxadiazol-3-yl]thiophen-2-yl}methyl)pyridazin-3-amine] |
| ≤ 1 | > 10000 | > 10000 | O=C(c1cnnc(N(Cc2ccc(-c3noc(C(F)(F)F)n3)s2)c2cnccn2)c1)N1CC[S+]([O-])CC1 [Example FU, 4-{6-[(Pyrazin-2-yl)({5-[5-(trifluoromethyl)-1,2,4-oxadiazol-3-yl]thiophen-2-yl}methyl)amino]pyridazine-4-carbonyl}-1lambda4-thiomorpholin-1-one] |
| 1 to 10 | > 10000 | > 10000 | Cc1cnc(N(Cc2ccc(-c3noc(C(F)(F)F)n3)s2)c2cnccn2)cn1 [Example BH, 5-Methyl-N-(pyrazin-2-yl)-N-({5-[5-(trifluoromethyl)-1,2,4-oxadiazol-3-yl]thiophen-2-yl}methyl)pyrazin-2-amine] |
| 1 to 10 | > 10000 | > 10000 | O=C(c1nccnc1N(Cc1ccc(-c2noc(C(F)(F)F)n2)s1)c1cnccn1)N1CCC1 [Example GP, 3-(Azetidine-1-carbonyl)-N-(pyrazin-2-yl)-N-({5-[5-(trifluoromethyl)-1,2,4-oxadiazol-3-yl]thiophen-2-yl}methyl)pyrazin-2-amine] |
| ≤ 1 | > 10000 | > 10000 | O=C(c1cnnc(N(Cc2ccc(-c3noc(C(F)(F)F)n3)s2)c2cnccn2)c1)N1C[C@H]2C[C@@H]1CO2 [Example FW, 5-[(1R,4R)-2-Oxa-5-azabicyclo[2.2.1]heptane-5-carbonyl]-N-(pyrazin-2-yl)-N-({5-[5-(trifluoromethyl)-1,2,4-oxadiazol-3-yl]thiophen-2-yl}methyl)pyridazin-3-amine] |

| Compound | EC50 [1] [µM] | IC50 (Human HDAC10) [nM] | IC50 (Human HDAC11) [nM] |
| --- | --- | --- | --- |
| [O-][S+]1CCN(Cc2ccc(N(Cc3ccc(-c4noc(C(F)(F)F)n4)s3)c3cnccn3)nn2)CC1 [Example FO, 4-({6-[(Pyrazin-2-yl)({5-[5-(trifluoromethyl)-1,2,4-oxadiazol-3-yl]thiophen-2-yl}methyl)amino]pyridazin-3-yl}methyl)-1lambda4-thiomorpholin-1-one] | ≤ 1 | > 10000 | > 10000 |

— patent US20210038607A1, “OXADIAZOLYLTHIOPHENE DERIVATIVES USEFUL AS HISTONE DEACETYLASE INHIBITORS” (Karus Therapeutics Limited, priority 2018, published 2021)
